Results on 16 molecules are retold here after patent US11938135B2, “Compositions and methods for treating vascular Ehlers Danlos syndrome and associated disorders” (The Johns Hopkins University, priority 2018, dated 2024).

For one assay, the system named is vEDS mice. In words: Survival of drug-treated vEDS mice (death due to aortic dissection). The class given is in vivo, mouse. The note with it: for survival rate: after about 30 days (1 month) of treatment; for protection from dissection or death: vEDS mice, dose not stated (early data). On the procedure:
Novel knock-in glycine substitution (Col3a1 G209S/+ and Col3a1 G938D/+) vEDS mice were created using CRISPR/Cas9.
To introduce each mutation, 3 guide RNAs (tracrRNA+crRNA) were designed to target the DNA regions flanking the intended mutation site. A DNA oligo repair template (ssDNA oligo) was also designed that included homologous sequences upstream and downstream of the target region, as well as the intended mutation. Pronuclear injection of one-cell C57BL/6J embryos was performed by the JHU Transgenic Core using standard microinjection techniques using a mix of Cas9 protein, tracrRNA, crRNA, and ssDNA oligo diluted in RNAse free injection buffer. Injected embryos were transferred into the oviducts of pseudopregnant ICR females using established techniques. Sanger sequencing of the site was utilized to confirm introduction of the mutation, and the mice were backcrossed for at least 4 generations to eliminate off-target effects. For the G209S mouse, the mutation introduced was c.625_626 GG>TC, corresponding to p.Gly210Ser in humans. For the G938D mouse, the mutation introduced was c.2813G>A, corresponding to […] in humans. The Wild-type Human Col3a1 mRNA NCBI Accession No: NM_000090.3; the wild-type Mouse Col3a1 mRNA NCBI Accession No.: NM_009930.2.
Pharmacological ERK antagonists were tested to support the role of ERK activation in the pathogenesis of vEDS and as a method to identify therapeutic strategies for vEDS. Mice were treated with cobimetinib [GDC-0973, RO5514041] (2 mg/kg/day), an FDA-approved inhibitor of MEK, the kinase that activates ERK^8. It was hypothesized that if ERK activation was truly driving disease risk, ERK inhibition would rescue the risk of death from aortic dissection.
Next, further studies were performed to test agents that inhibit PKC activation. Mice were treated with ruboxistaurin [LY 333531] […] It was hypothesized that if ERK activation, and thereby disease risk, was driven by PLC/IP3/PKC activation, a pharmacologic PKC inhibitor would also rescue the risk of death from aortic dissection.
Further studies were performed to test other medications that inhibit this signaling cascade.

A short description of assay [1]: Blood pressure / hemodynamic stress in treated vEDS mice. The class given is in vivo, mouse. The note with it: for hemodynamic stress: dose not stated; for effect on blood pressure: doses as in the survival studies.
Another assay concerns Col3a1^G209S/+ mice. In words: Risk of aortic dissection in Col3a1 G209S/+ mice. The class given is in vivo, mouse. The note with it: celiprolol; Col3a1 G209S/+ mutation. An excerpt: Others have proposed^5-8 that vEDS phenotypes are a result of chronically “weak” tissue and therefore propose that decreasing blood pressure with beta-adrenergic receptor blockers should decrease the risk of aortic rupture in these patients. […] Since this was not common to all β antagonists, this observation could be driven by celiprolol's β2 agonism activity.

The test system of another assay is patients with vEDS. The following applies: small human study; cited from earlier work.
In another assay the test system is 129 MFS mice. In words: Aortic root growth in Marfan syndrome mice. The class given is in vivo, mouse. The note with it: ruboxistaurin 10 mg/kg/d, p=2E-4. An excerpt:
In examples, different PKC-β inhibitors are used for the treatment of Marfan Syndrome. For example, treatment of Marfan Syndrome may include administration of ruboxistaurin. […] In other examples, treatment of Marfan Syndrome includes administration of enzastaurin or sotrastaurin.

Assay [2] relates to vEDS mice, first 30 days postpartum. Put plainly: Postpartum survival of lactating vEDS mice (pregnancy/breastfeeding model). The class given is in vivo, mouse. An excerpt:
Previously, it was shown that pregnancy-associated aortic dissection is largely driven by lactation-associated oxytocin release and oxytocin-induced ERK signaling in MFS mouse aortas^11. Thus, oxytocin-induced ERK signaling was used as a method to test whether activation of the PLC/IP3/PKC/ERK axis would worsen the risk of aortic dissection.
Oxytocin-induced ERK signaling was used as a method to test the hypothesis that activation of the PLC/IP3/PKC/ERK axis would worsen the risk of aortic dissection.

In the next assay the test system is MFS mice. The note with it: cited from earlier work.

Entries after “also recorded” stand apart in the source; their conditions may differ.

Turning to `CC(O)(CS(=O)(=O)c1ccc(F)cc1)C(=O)Nc1ccc(C#N)c(C(F)(F)F)c1` (stereo not drawn) [bicalutamide], in the assay on vEDS mice (bicalutamide alone, male mice), the “survival in male mice” value is around 80%.
On to `Cn1cc(C2=C(c3cn(C4CCN(Cc5ccccn5)CC4)c4ccccc34)C(=O)NC2=O)c2ccccc21` [enzastaurin, 3-(1-Methylindol-3-yl)-4-[1-[1-(pyridin-2-ylmethyl)piperidin-4-yl]indol-3-yl]pyrrole-2,5-dione], for which the survival in the assay on vEDS mice (enzastaurin 60 mg/kg/d, after 40 days of treatment, 50% of untreated vEDS mice, p=0.0305) amounted to 80%. Moreover, the survival rate result in the assay with vEDS mice (enzastaurin about 30 mg/kg/day orally) is recorded as “about 100%”.
Regarding `CCN(CC)C(=O)Nc1ccc(OCC(O)CNC(C)(C)C)c(C(C)=O)c1` (stereo not drawn) [celiprolol], the improvement in survival result with vEDS mice (celiprolol 200 mg/kg/d) is on record as “none of these manipulations lead to an improvement in survival”. Moreover, the “risk of aortic dissection” value in the assay with vEDS mice (celiprolol 200 mg/kg/d, vEDS mouse models) is on record as “accelerated the risk of aortic dissection”. The “protection from dissection or death” value in the assay with vEDS mice was “significant acceleration of dissection and death”. For the same molecule, in assay [1], the hemodynamic stress entry is “achieved the predicted lowering of hemodynamic stress” and the “effect on blood pressure” value was “decreases in blood pressure”. Moreover, the “risk of aortic dissection” value in the assay on Col3a1^G209S/+ mice was “increased risk of aortic dissection”. Further, the “adverse events in patients with vEDS” value in the assay on patients with vEDS is recorded as “potential to delay adverse events”.
`CN(C)C[C@@H]1CCn2cc(c3ccccc32)C2=C(C(=O)NC2=O)c2cn(c3ccccc23)CCO1` [ruboxistaurin, (9S)-9-[(dimethylamino)methyl]-6,7,10,11-tetrahydro-9H,18H-5,21:12,17-di(metheno)dibenzo[e,k]pyrrolo[3,4-h][1,4,13]oxadiazacyclohexadecine-18,20-dione] showed a survival in the assay on vEDS mice (ruboxistaurin 10 mg/kg/day, after 39 days of treatment, 55% survival with no treatment) of 100%. Also, the “effect on blood pressure” value in assay [1] is “Neither cobimetinib nor ruboxistaurin had an effect on blood pressure”. Moreover, the aortic root growth entry with 129 MFS mice is given as “reduces aortic root growth; also recorded: rescued the aortic root growth”.
In the case of `COC(=O)c1ccc2c(c1)NC(=O)/C2=C(\Nc1ccc(N(C)C(=O)CN2CCN(C)CC2)cc1)c1ccccc1` [nintedanib], the impact on survival result in the assay with vEDS mice (nintedanib 50 mg/kg/d) is listed as “no impact on survival”.
Consider `CN1CCN(c2nc(C3=C(c4c[nH]c5ccccc45)C(=O)NC3=O)c3ccccc3n2)CC1` [sotrastaurin], for which the survival rate entry with vEDS mice (sotrastaurin about 30 mg/kg/day orally) was “about 100%”.
`NNc1nncc2ccccc12` [hydralazine] returned a survival in the assay on vEDS mice (hydralazine 32 mg/kg/d, at 45 days of age, the median survival for an untreated vEDS mouse) of 98%. The “survival in male mice” value with vEDS mice (hydralazine-only (32 mg/kg/d) treated male mice) is 24%. In assay [2] (hydralazine 16 mg/kg/day, first 30 days postpartum, 60% lethality untreated), the survival postpartum was determined as 95%.
As for `CC(C)NCC(O)COc1ccc(CC(N)=O)cc1` (stereo not drawn) [atenolol], the improvement in survival entry in the assay on vEDS mice (atenolol 120 mg/kg/d) is “none of these manipulations lead to an improvement in survival”. The “effect on blood pressure” value in assay [1] is recorded as “decreases in blood pressure”.
In the case of `CC(=O)Nc1cccc(-n2c(=O)n(C3CC3)c(=O)c3c(Nc4ccc(I)cc4F)n(C)c(=O)c(C)c32)c1` [trametinib], the survival postpartum in assay [2] (trametinib 1 mg/kg/day, first 30 days postpartum, 60% lethality untreated) is 95%.
In the assay on vEDS mice (spironolactone alone 100 mg/kg/d), `CC(=O)S[C@@H]1CC2=CC(=O)CC[C@]2(C)[C@H]2CC[C@@]3(C)[C@@H](CC[C@@]34CCC(=O)O4)[C@H]12` [spironolactone] gave a survival of around 80%.
As to `O=C(c1ccc(F)c(F)c1Nc1ccc(I)cc1F)N1CC(O)([C@@H]2CCCCN2)C1` [cobimetinib], the survival in the assay on vEDS mice (cobimetinib 2 mg/kg/day, after 45 days of treatment, 55% survival with no treatment) is reported as 94%. The “effect on blood pressure” value in assay [1] is recorded as “Neither cobimetinib nor ruboxistaurin had an effect on blood pressure”.
With `CCOC(=O)N[C@@H]1CC[C@@H]2[C@@H](C1)C[C@H]1C(=O)O[C@H](C)[C@H]1[C@H]2/C=C/c1ccc(-c2cccc(F)c2)cn1` [vorapraxar], in the assay on vEDS mice (vorapraxar 1 mg/kg/d), the impact on survival entry is listed as “no impact on survival”.
Regarding `CCCCc1nc(Cl)c(CO)n1Cc1ccc(-c2ccccc2-c2nn[nH]n2)cc1` [losartan], in the assay with vEDS mice (losartan 60 mg/kg/d), the impact on survival entry is given as “no impact on survival”. Besides, the “protection from dissection or death” value with vEDS mice is listed as “no evidence of protection from dissection or death”. In assay [1], the hemodynamic stress result is “achieved the predicted lowering of hemodynamic stress”. In the assay on MFS mice (MFS mice, literature refs 3-6), the “aortic disease in MFS mice” value is reported as “can suppress aortic disease”. Further, the “protection in mouse models of MFS or LDS” value in the assay with MFS mice (mouse models of MFS or LDS) is given as “afford dramatic protection”.
Consider `CC(C)NCC(O)COc1cccc2ccccc12` (stereo not drawn) [propranolol], for which, in the assay on vEDS mice (propranolol 80 mg/kg/d), the improvement in survival entry is given as “none of these manipulations lead to an improvement in survival”. The same molecule displayed a survival postpartum in assay [2] (propranolol, after 30 days postpartum, vs. 50% survival) of 46%. Further, the “effect on postpartum survival” value in assay [2] (propranolol, first 30 days postpartum, mice still lactating) is recorded as “does not improve survival; also recorded: did not affect survival”. Besides, the “effect on blood pressure” value in assay [1] is listed as “lowers blood pressure; also recorded: decreases in blood pressure”.
For the molecule `COc1ccccc1Oc1c(NS(=O)(=O)c2ccc(C(C)(C)C)cc2)nc(-c2ncccn2)nc1OCCO` [bosentan], in the assay on vEDS mice (bosentan 100 mg/kg/d, after 40 days of treatment, 50% survival in untreated vEDS mice, p=0.0298), the survival was 80%.
On to des Gly-NH2,d(CH2)5[D-Tyr2,Thr4]OVT, for which the survival postpartum in assay [2] (oxytocin receptor antagonist, first 30 days postpartum, mice still lactating) came to 95%.
